Source: the NIST ThermoML archive (doi:10.1016/j.fluid.2008.07.001)
± gives the expanded uncertainty stated by the source.

Assay: not given
Conditions: 298.15 K; 101.33 kPa; Liquid

| mass density | Compound |
| --- | --- |
| 1043.9 ± 0.11 kg/m3 | CC(=O)O [acetic acid] |
| 797.83 ± 0.48 kg/m3 | CC(C)CO [2-methyl-1-propanol] |
| 866.12 ± 1.4 kg/m3 | CC(=O)OCC(C)C [2-methylpropyl ethanoate] |

Assay: refractive index (Na D-line) (dimensionless)
Conditions: 298.15 K; 101.33 kPa; Liquid; Standard Abbe refractometry

| refractive index | Compound |
| --- | --- |
| 1.3696 ± 0.0005 | CC(=O)O [acetic acid] |
| 1.3938 ± 0.0005 | CC(C)CO [2-methyl-1-propanol] |
| 1.3325 ± 0.0005 | O [water] |
| 1.3876 ± 0.0006 | CC(=O)OCC(C)C [2-methylpropyl ethanoate] |
